# Experimental data published in patent US20060160095A1, “Survivin” (EiRx Therapeutics Limited, priority 2002, published 2006).
# e = 2'-O-(2-methoxyethyl) (MOE); d = 2'-deoxy (DNA)
# Tests used:
# Neutrophils = assay: Neutrophil apoptosis by oligonucleosomal DNA fragments after 2-MOE oligonucleotides; format: cell-based, human; conditions: for GM-CSF- and G-CSF-mediated survival of neutrophils: oligonucleotide plus GM-CSF or G-CSF
# Protocol: Neutrophil apoptosis is assessed by oligonucleosomal DNA fragmentation (Dibbert et al.(1999) Proc. Natl. Acad. Sci. USA 96, 13330-13335; Hebestreit et al. (1998), J. Exp. Med. 187, 415-425) according to Nicoletti et al. ((1991) J. Immunol. Meth. 139, 271-279). Briefly, cells are resuspended in hypotonic fluorochrome solution containing 50 μg/ml propidium iodide (Sigma Buchs, Switzerland), 0.1% sodium citrate (Sigma) and 0.1% (vol/vol) Triton-X 100 (Sigma), incubated at 4° C. for 10 h, and analyzed by flow cytometry (FACScan, Becton Dickinson, Heidelberg, Germany).
# (§1) The 20-mer first generation antisense oligonucleotide 4003 targeting the survivin mRNA has been described above. The second generation 2′-O-methoxy-ethoxy (2′-MOE) gapmer version of 4003 (as) and its 3-base mismatch sequence control (ms) are synthesized using an Applied Biosystems 394B automated DNA synthesizer as described (De Mesaeker et al. (1995) Acc. Chem. Res. 28, 366-374). Sequences are as follows: antisense survivin, cscscsasgsCsCsTsTsCsCsAsGsCsTscscststsg; mismatch survivin, cscstsasgsCsCsTsTsCsCsAsGsGsTscscstsasg. Small letters refer to 2′-O-(2-methoxy)-ethyl-modified nucleotides, capital letters to DNA, and “s” refers to phosphorothioate linkages. Cells isolated and cultured as described above are treated with survivin antisense oligonucleotides (as) or survivin mismatch control oligonucleotides (ms) at the indicated concentrations. In the experiments in which GM-CSF (50 ng/ml; kind gift of T. Hartung, University of Konstanz, Konstanz, Germany) or G-CSF (25 ng/ml; PeproTech, BioConcept, Allschwil, Switzerland) are added, the oligonucleotides are given 2 h before addition of cytokines.
# Values are means ±S.E.M. of four independent experiments. *, p<0.05; **, p<0.01; ***, p<0.001.
# Survivin mRNA = assay: Real-time PCR quantification of survivin mRNA in neutrophils; format: cell-based, human; conditions: for survivin mRNA expression in the absence of survival cytokines: 4-h transfection period, no cytokine
# Protocol: (§2) Neutrophils are cultured at 1×10^6 per ml in complete culture medium. GM-CSF (50 ng/ml; kind gift of T. Hartung, University of Konstanz, Konstanz, Germany) or G-CSF (25 ng/ml; PeproTech, BioConcept, Allschwil, Switzerland) are added. The duration of GM-CSF or G-CSF stimulation is indicated in each experiment.
# Neutrophils (1×10^7) are washed with PBS and the RNA is isolated according to the RNeasy protocol (Qiagen AG, Basel, Switzerland), which includes DNase digestion. RNA is reverse transcribed with the first strand cDNA synthesis kit (Amersham Pharmacia Biotech) by using random hexanucleotides according to the manufacturer's instructions. Real-time monitoring of PCR amplification of survivin cDNA is performed with a 1/100 dilution of neutrophil cDNA as previously described (Olie et al. (2000) Cancer Research 60, 2805-2809). Relative quantification of survivin expression is performed as described (Olie et al. (2000) Cancer Research 60, 2805-2809) utilizing rRNA as an internal standard.
# as §1
# caspase-3 [1] = assay: Caspase-3 immunoblotting in neutrophils; format: cell-based, human
# Protocol: Immunoblotting is carried out as described above using supernatants of cell lysates. Caspase-3 is detected using a polyclonal anti-caspase-3 antibody (1/1000; Becton Dickinson Pharmingen, Heidelberg, Germany))
# (§3) Neutrophils (2.5×10^6) are cultured in the presence or absence of GM-CSF (50 ng/ml), G-CSF (25 ng/ml), 2-MOE modified antisense or mismatch survivin oligonucleotides at the indicated concentrations for 10 h, washed with cold PBS and subsequently lysed in 50 μl cell lysis buffer (50 mM HEPES, pH 7.4/0.1% Chaps/5 mM DTT/0.1 mM EDTA) using a Teflon glass homogenizer (VWR International, Ismaning, Germany) on ice for 10 min. After a 10-min centrifugation step at 10,000×g at 4° C., an aliquot of the supernatant is saved for caspase-3 immunoblotting and caspase 3-like activity is measured in 10 μl supernatants as enzymatic-conversion of the colorimetric substrate Ac-DEVD-pNA at 405 nm according to the manufacturer's instructions (QuantiZyme caspase 3 cellular activity assay kit, Biomol, Plymouth Meeting, Pa., USA).
# caspase-3 [2] = assay: Enzymatic caspase assay (Ac-DEVD-pNA) in neutrophil lysates; format: cell-based, human
# Protocol: as §3
# survivin = assay: Immunoblotting of survivin protein in neutrophils; format: cell-based, human
# Protocol: as §2
# Neutrophils (5×10^6) are washed with PBS, lysed with RIPA-buffer (0.5% sodium deoxycholate, 1% Nonidet P-40, 0.1% SDS in PBS) supplemented with a protease inhibitor-cocktail (Sigma) with frequent vortexing on ice for 40 min, including two freeze/thaw cycles using a methanol/dry ice bath. After a 10-min centrifugation to remove insoluble particles, equal amounts of the cell lysates are loaded on NuPage-Gels (Invitrogen Corp., Groningen, Netherlands). Separated proteins are electrotransferred onto polyvinylidene difluoride (PVDF) membranes (Immobilion-P, Millipore, Bedford, Mass.). The filters are incubated overnight with a polyclonal anti-survivin antibody (1/1000; R&D Systems, Abingdon, UK) at 4° C. in TBS/0.1% Tween-20/3% non-fat dry milk. Purified full-length recombinant human survivin (2 μl) is provided by R&D Systems as positive control for anti-survivin immunoblotting. For loading controls, stripped filters are incubated with a monoclonal anti-β-actin antibody (1/10,000; Sigma). Filters are washed in TBS/0.1% Tween-20 for 30 min and incubated with the appropriate HRP-conjugated secondary antibody (Amersham Pharmacia Biotech, Dübendorf, Switzerland) in TBS/0.1% Tween-20/5% non-fat dry milk for 1 h. Filters are developed by an ECL-technique (ECL-Kit, Amersham Pharmacia Biotech) according to the manufacturer's instructions.
# as §1
# [3] = tested on: Primary human neutrophils; assay: MTT survival assay of neutrophils cultured with GM-CSF, with or without gliotoxin; format: cell-based; conditions: 0.1 μg/ml added with 5 U/ml GM-CSF
# Protocol: Primary human neutrophils are isolated and purified from peripheral blood of normal healthy individuals. Neutrophils are resuspended in serum containing culture medium together with various amounts of GM-CSF at a density of 2×10^6/ml, with 100 μl plated into a 96 well plate and cultured for 18 h at 37° C. After this time 10 μl of MTT (5 mg/ml) is added to the cultures and incubated for a further 4 h at 37° C. before solubilisation of the purple coloured formazan with acidic isopropanol. Optical densities are read at 570 nm using a plate reader.
# Primary human neutrophils are isolated and purified from peripheral blood of normal healthy individuals. Neutrophils are resuspended in serum containing culture medium containing 5 U/ml of GM-CSF at a concentration of 2×10^6/ml. […] After the indicated time, 10 μl of MTT (5 mg/ml) are added to the cultures and incubated for a further 4 h at 37° C. before solubilisation of the purple coloured formazan with acidic isopropanol. Optical densities are read at 570 nm using a plate reader.
molecule,measurement,setting,value
"cscstsasgsCsCsTsTsCsCsAsGsGsTscscstsasg (CCTAGCCTTCCAGGTCCTAG; sugars from the 5' end e5 d10 e5, all phosphorothioate, methylation of C not given here) [mismatch control oligonucleotides, reference compound]",GM-CSF- and G-CSF-mediated survival of neutrophils,Neutrophils,unspecific effect
same,survivin mRNA expression in the absence of survival cytokines,Survivin mRNA,only little effects
"cscscsasgsCsCsTsTsCsCsAsGsCsTscscststsg (CCCAGCCTTCCAGCTCCTTG; sugars from the 5' end e5 d10 e5, all phosphorothioate, methylation of C not given here) [survivin-antisense, second generation 2′-O-methoxy-ethoxy (2′-MOE) gapmer version of 4003]",optimal concentration to block inhibitory effects on caspase-3 processing,caspase-3 [1]; G-CSF,5 µM
same,optimal concentration to block inhibitory effects on caspase-3 processing,caspase-3 [1]; GM-CSF,2.5 µM
same,caspase-3 processing in the presence of GM-CSF or G-CSF,"caspase-3 [1]; dose-dependent, 10 h",increase caspase-3 processing
same,optimal concentration at which inhibitory effect on caspase-3 activity is completely blocked,caspase-3 [2]; G-CSF,5 µM
same,optimal concentration at which inhibitory effect on caspase-3 activity is completely blocked,caspase-3 [2]; GM-CSF,2.5 µM
same,caspase-3-like enzymatic activity in the presence of GM-CSF or G-CSF,"caspase-3 [2]; dose-dependent, 10 h",increase caspase-3-like enzymatic activity
same,spontaneous apoptosis of neutrophils,"Neutrophils; 10-h transfection period, no cytokine",increase spontaneous apoptosis
same,optimal concentration to block cytokine-mediated antiapoptosis,Neutrophils; G-CSF,5 µM
same,optimal concentration to block cytokine-mediated antiapoptosis,Neutrophils; GM-CSF,2.5 µM
same,GM-CSF- and G-CSF-mediated survival of neutrophils,Neutrophils,blocked GM-CSF- and G-CSF-mediated survival in a dose-dependent manner
same,protein expression of survivin in normal neutrophils,"survivin; 15-h transfection period, no cytokine",almost not affected
same,optimal concentration to block increase in survivin protein expression,survivin; G-CSF stimulation,5 µM
same,optimal concentration to block increase in survivin protein expression,survivin; GM-CSF stimulation,2.5 µM
same,increases in survivin expression (protein) upon GM-CSF and G-CSF stimulation,survivin; dose-dependent,prevents increases in survivin expression
same,survivin mRNA expression in the absence of survival cytokines,Survivin mRNA,only little effects
same,required concentration to significantly decrease survivin mRNA levels,Survivin mRNA; G-CSF stimulation,2.5 µM
same,concentration sufficient to significantly decrease survivin mRNA levels,Survivin mRNA; GM-CSF stimulation,1.0 µM
same,increases in survivin mRNA expression upon GM-CSF and G-CSF stimulation,"Survivin mRNA; oligonucleotides given 2 h before cytokines, dose-dependent",prevents increases in survivin mRNA expression
"CS[C@]1(CO)C(=O)N2[C@H]3C(=CC=C[C@@H]3O)C[C@@]2(SC)C(=O)N1C [methylgliotoxin, bis-Dethio-bis (Methylthio) Methyl Gliotoxin]",block of the GM-CSF inhibition of neutrophil apoptosis (MTT),[3],blocking effect is not seen
"G-CSF: inflammatory cytokine, neutrophil hematopoietin (PeproTech) (protein, UniProt P09919 31-207, looked up) Granulocyte …: TPLGPASSLPQSFLLKCLEQVRKIQGDGAALQEKLVSECATYKLCHPEELVLLGHSLGIPWAPLSSCPSQALQLAGCLSQLHSGLFLYQGLLQALEGISPELGPTLDTLQLDVADFATTIWQQMEELGMAPALQPTQGAMPAFASAFQRRAGGVLVASHLQSFLEVSYRVLRHLAQP",caspase-3 proform and 17-kDa fragment levels with cytokine,caspase-3 [1]; neutrophils cultured with GM-CSF or G-CSF for 10 h,maintain greater amounts of the caspase-3 proform
same,DNA-fragmentation of neutrophils with cytokine,Neutrophils; cytokine alone,prevent DNA-fragmentation
same,Levels of survivin (immunoblot) in normal control neutrophils,survivin; cultured for 12 h in the presence of cytokine,increased
same,survivin mRNA in normal control neutrophils after cytokine addition,"Survivin mRNA; cytokine added in vitro, A549 standard = 100%",increase in survivin mRNA
